Experimental data reported in PMC8586984, “Antiviral Potential of Naphthoquinones Derivatives Encapsulated within Liposomes” (Molecules, 2021).

Key:
Cytotoxicity assay (MTT) = type: cell-based, African green monkey (Cercopithecus aethiops); conditions: African green monkey, free (not encapsulated), Vero cells
Description: Initially, we evaluated the influence of liposomes on cell viability. For this, monolayers of Vero cells (10^4 cells/mL) were incubated with several concentrations of 2-aminomethyl-3-hydroxy-1,4 naphthoquinone derivatives that either were or were not encapsulated in the liposome (0.5 to 10 μM) for 48 h at 37 °C (Table 2). Following this, 1 mg/mL of 3-(4,5-Dimethylthiazol-2-yl)-2,5 Diphenyl Tetrazolium Bromide was added to each well for 4 h at 37 °C and the resulting purple formazan was followed at 570 nm. Since liposomes are considered an excellent delivery system, it may be reasonable for the liposome to increase the cytotoxic effect on cells.
Vero cells cultivated in 96-multiwell plates (1 × 10^4 cells/well) were incubated with liposomes coupled to 2-aminomethyl-3-hydroxy-1,4-naphthoquinones in different concentrations (0.5, 1, 5 and 10 μM) for 48 h at 37 °C and 5% CO2 atmosphere. Then, 50 μL of 3-(4,5-dimethylthiazol-2-yl)-2,5 diphenyl MTT (1 mg/mL, Sigma-Aldrich, St Louis, MO, USA) was added to each well for 4 h at 37 °C [48]. The MTT reduction in living cells creates formazan, a purple compound that is absorbed at 570 nm. The 50% cytotoxic concentration (CC50) was calculated by linear regression analysis of the dose–response curves.

HSV-1 = system: HSV-1; design: method as in PMID 24493066, PMID 26913545; conditions: free compounds, previous studies against HSV-1; ref [36],[38]; cited from earlier work
HSV-1 strain SC-16 = assay: Yield reduction assay; type: cell-based, Herpes Simplex Virus 1; conditions: for EC50: Human alphaherpesvirus 1, SC16; for SI (CC50/EC50 ratio): free (non-encapsulated) derivatives, concentrations up to 10 μM
Description: Briefly, after incubation with HSV-1 (MOI of 0.1) for 1 h at 37 °C, cells were washed with MEM 5% FCS and incubated with acyclovir, […] from 0.01 to 10 μM for 24 h in atmosphere, with 5% CO2 at 37 °C. After the dilution (1:10) of the viral suspension, new 24-well plates were used to determine the EC50 values, based on viral control.
For all antiviral assays, strain SC-16 HSV-1 was used at a multiplicity of infection (MOI) of 0.1 to infect Vero cells at 3 × 10^5 cells/well using a modified yield reduction assay. All aminomethylnaphthoquinone derivatives were previously diluted in pre-chilled MEM with 5% FCS.
To determine the HSV-1 title, Vero cells maintained in 24-multiwell plates (3 × 10^5 cell/well) were infected with HSV-1 strain SC-16 ([…]) for 1 h at 37 °C and 5% CO2 atmosphere.
After the removal of the viral inoculum, cells were treated with 0.01 µM to 10 µM of compound 1, 2, 3 and ACV encapsulated in liposomes for 24 h at 37 °C and 5% CO2 atmosphere. Then, the cells were subjected to three cycles of freezing and thawing and the inoculum diluted (1:10) to a new infection in 24-multiwell plates (10^5 cells/well) for 1 h at 37 °C and 5% CO2 atmosphere. The cells were covered with MEM 2X, 5% FCS and 2% methylcellulose for 48h at 37 °C and the viral title was determined by the number of viral plaque units per mL (PFU/mL). EC50 values, which means the drug concentration able to inhibit 50% of the viral plaque formation, were determined by linear regression compared to the untreated infected control.

BALB/c = system: BALB/c; design: method as in earlier work; conditions: oral administration, ref [37]; cited from earlier work

| Structure (SMILES) | CC50 at 48 h (Cytotoxicity assay (MTT)) | SI (HSV-1) | EC50 (HSV-1 strain SC-16) | SI (CC50/EC50 ratio) (HSV-1 strain SC-16) | Effect on transaminases level or kidneys functions (BALB/c) |
| --- | --- | --- | --- | --- | --- |
| Nc1nc2c(ncn2COCCO)c(=O)[nH]1 [Acyclovir, acyclovir, reference compound] | 15 ± 1 µM | 0.80 |  |  |  |
| CCCCNC(C1=C(O)C(=O)c2ccccc2C1=O)c1ccc(Cl)cc1Cl (stereo not drawn) [compound 1] | 19 ± 1 µM |  | 1.98 ± 0.3 µM | 9.6 | no effect on transaminases level or kidneys functions |
| O=C1C(O)=C(C(NCc2ccccc2)c2ccc(Cl)cc2Cl)C(=O)c2ccccc21 (stereo not drawn) [compound 2] | 22 ± 2 µM |  | 1.06 ± 0.49 µM | 20.75 |  |
| O=C1C(O)=C(C(NCc2ccccc2)c2ccc([N+](=O)[O-])cc2)C(=O)c2ccccc21 (stereo not drawn) [compound 3] | 17 ± 2 µM |  | 3.1 µM | 5.48 |  |
